Like-named read-outs stand apart in the source and are kept apart here.
Assays:
[1] = Stability of prostratin in monkey plasma; assay type: in vitro ADME; details: 1 and 10 mg/ml, RT and 37° C.
Method: (§1) Prostratin is stable in plasma and buffer as well as in the stability formulation (see below) developed for in vivo studies in mice. Stability tests for prostratin in mouse and monkey plasma were done using two concentration (1 and 10 mg/ml) and two temperatures (Room Temperature (RT) and 37° C.). The only loss of drug occurred in mouse plasma after 24 hr incubation at 37° C. This represented only 14% decrease in parent drug peak area over this time frame. Prostratin is stable in PBS (phosphate buffer saline) at pH 2 and pH 7.

[2] = test system: latently infected U1 cells; experiment: HIV expression (reverse transcriptase activity in supernatant) in latently infected U1 cells; assay type: cell-based
Method: (§2) The effect of prostratin on virus replication was assessed in latently infected ACH-2 and U1 cells by measuring the accumulation of reverse transcriptase activity in the supernatant of stimulated cells (Gustafson et al., 1992, J Med Chem 35(11): 1978-86).
(§3) Briefly, 4×10^4 cells in 100 μl fresh medium were mixed with another 100 μl of medium with or without prostratin or PMA in a 96-well microtiter plate. Plates were incubated for 24-72 h at 37° C. Following incubation, supernatants were harvested, centrifuged (to remove any residual cells) and tested for reverse transcriptase activity as previously described (Gustafson et al., 1992, J Med Chem 35(11): 1978-86).
(§4) In these experiments, two concentrations of cells were tested (40,000 and 100,000 cells/well). It is noteworthy that the basal levels of reverse transcriptase activities were much higher in ACH-2 cells than in U1 cells.

[3] = test system: rats; experiment: Tolerability of intravenous infusion and oral doses in rats; assay type: in vivo
Method: In order to find out the best route of administration and the correct concentration of prostratin, the drug was administered as an intravenous infusion over three hours as well as a single and twice oral administration to 3 groups of rats. The goal of this experiment was to find out if greater amounts of prostratin can be administered over a longer period of time. This would enable obtaining median higher concentrations in the blood for a longer period of time that would be close to effective concentration found in in vitro studies.
(§5) The oral doses were estimated based on a maximum tolerated i.v. dose of 0.4 mg/kg from the DART work in rats, but an oral bio-availability of only 29%. Thus, the maximum tolerated i.v. dose was multiplied by three (i.e., 0.4 mg/kg times 3 equals 1.2 mg/kg as the equivalent oral dose). The purpose of the two lower oral doses (both 0.8 mg/kg, therefore a total of 1.6 mg/kg) and the infusion (0.8 mg/kg over three hours) was to see if the maximum tolerated dose could be exceeded by dividing up the oral into two times 75% the max tolerated dose or as an infusion over 3 hours.

[4] = Stability in the formulation vehicle for in vivo studies; assay type: physicochemical; details: 10% DMSO: 10% Cremophor: 80%:0.9% Saline; even at 37° C. for at least 2 hr
Method: Drug was dissolved in vehicle (10% DMSO: 10% Cremophor: 80%:0.9% Saline) and then incubated at four different temperatures (37° C., RT, 4° C., and −20° C.) for up to 2 hr. Prostratin is stable in this formulation even at 37° C. for at least 2 hr.

[5] = Stability in PBS (phosphate buffer saline); assay type: physicochemical
Method: as §1

[6] = Solubility limit after dosing in culture medium; assay type: physicochemical; details: plasma or biological fluid, kinetic from dmso stock, dosing volume of 1%
Method: Dimethylsulfoxide (DMSO) was the vehicle of choice for this study. […] The stock solution and its dilutions were dosed using a dosing volume of 1% (10 μL/ml) and the vehicle control cultures were treated with 10.0 μL/ml of DMSO.

[7] = In vitro metabolism in human liver microsomes; assay type: in vitro ADME
From the text: In vitro metabolism of prostratin was investigated using mouse, rat, monkey, and human liver microsomes (Gentest). […] Attempts to identify the metabolite by LC/MS/MS were unsuccessful due to the low amounts present in the reaction mixtures (FIG. 1).

[8] = test system: rhesus macaque monkeys; experiment: Dose-range finding study in monkeys and determination of MTD; assay type: in vivo
Method: (§6) After a suitable wash-out period (15-20 days), monkeys that previously received 0.1 mg/kg, were administered a dose of 0.6 mg/kg, and those that previously received 0.4 mg/kg, were administered a second dose of 0.4 mg/kg. Blood was collected as before for clinical pathology and cytokine assay analysis. There was no mortality in this study. However both animals receiving 0.6 mg/kg prostratin required more time (2-4 times as much) to recover from Ketamine (used as a chemical restraint while weighing and dosing) after the second dosing compared with the initial doses. On day 3, all monkeys had elevated (2-3 fold) fibrinogen levels and there was evidence of dose-dependent hepatotoxicity.

[9] = as above; assay type: in vivo, rhesus macaque monkeys; details: rhesus monkey, in vivo
Method: as §6

[10] = test system: rhesus macaque monkeys; experiment: Preliminary pharmacokinetic study in monkeys (mortality); assay type: in vivo; details: intravenous bolus 0.8 mg/kg; respiratory failure shortly after injection
Method: During a preliminary pharmacokinetic study, rhesus macaque monkeys were administered an intravenous bolus of prostratin at 0.4 mg/kg and 0.8 mg/kg. The monkey in 0.8 mg/kg died due a respiratory failure shortly after injection. Plasma samples from these monkeys were sent to NIH and plasma concentration of prostratin was measure along with other samples at NIH using the LC/MS/MS assay.

[11] = test system: PBMCs; details: alone or in conjunction with other activators; cited from earlier work
[12] = Stability of prostratin in mouse plasma; assay type: in vitro ADME; details: 24 hr incubation at 37° C.
Method: as §1

[13] = test system: rats; experiment: DART work in rats (IV injection); assay type: in vivo; details: for maximum tolerated i.v. dose: iv bolus
Method: Extrapolation was performed from the DART work that was all done in rats as an IV injection (not infusion). Infusions and injections are by definition 100% bio-available meaning it all gets in.
as §5

[14] = test system: latently infected ACH-2 cells; experiment: HIV expression (reverse transcriptase activity in supernatant) in latently infected ACH-2 cells; assay type: cell-based
Method: as §2, §3, §4

For `CC(=O)O[C@@]12C[C@@H](C)[C@@]3(O)[C@@H](C=C(CO)C[C@]4(O)C(=O)C(C)=C[C@@H]34)[C@@H]1C2(C)C` [prostratin, 12-deoxyphorbol 13-acetate], the stability in plasma [1] was “stable”, the “exposure time needed to observe acceptable reverse transcriptase activity” value [2] was “at least 48 h” and the “lowest dose to get a reliable increase in reverse transcriptase activity” value [2] was 50 ng/mL. The “short incubation (pulsed stimulation) time leading to detectable reverse transcriptase activity” value ([2]; none after 1 h and 4 h) was 6 h, the “Results (tolerability)” value ([3]; female rats, 0.8 mg/kg I.V. infusion, 3 hours) was “All animals died” and the “Results (tolerability)” value ([3]; female rats, 1.2 mg/kg, one oral dose) was 2 out of 3 animals died. For the same compound, the “Results (tolerability)” value ([3]; female rats, 1.8 mg/kg first oral dose followed by 1.0 mg/kg after 4 hours) was 2 died after first dose,, the “Results (tolerability)” value ([3]; male rats, 1.8 mg/kg, two oral doses 4 hours apart) was “All animals are alive” and the “Results (tolerability)” value ([3]; male rats, 2.4 mg/kg, one oral dose) was “All animals are alive”. For the same compound, the stability in formulation [4] was “stable”, the “stability in PBS” value ([5]; pH 2) was “stable” and the “stability in PBS” value ([5]; pH 7) was “stable”. For the same compound, the solubility [6] was under 3500 µg/mL, the “metabolism (time-dependent loss of parent compound)” value [7] was “substantially less” and the “time to recover from Ketamine compared with the initial doses” value ([8]; 0.6 mg/kg) was 2-4 times. The “increase in level of ALT and AST over baseline” value ([8]; 0.6 mg/kg dose group, day 3) was 25-50 fold, the “time after which plasma drug level is undetectable” value ([8]; 0.1 and 0.4 mg/kg i.v. bolus, day 1) was 4 h and the reversibility of toxicities ([8]; all clinical pathology measurements normal by day 15) was “reversible”. The “elevation of fibrinogen levels” value ([8]; day 3, all monkeys) was 2-3 fold, the “CK and LD levels” value ([8]; day 3, dose-dependent) was “increases” and the “level of IL-6” value ([8]; female monkeys, 0.4 and 0.6 mg/kg) was “increase”. The mortality ([8]; i.v. bolus 0.1, 0.4 and 0.6 mg/kg) was “no mortality”, the “toxicity at the initial doses” value ([8]; single intravenous bolus 0.1 or 0.4 mg/kg) was “absence of toxicity” and the MTD at 15 days ([9]; both sexes, iv, monkeys, single bolus i.v. dose, read-out: MTD) was 0.4 to 0.6 mg/kg. The MTD at 15 days ([9]; intravenous, as restated in Example 13, read-out: MTD later found in monkeys at NIH) was 0.2 to 0.4 mg/kg, the mortality [10] was “died” and the “individuals on suppressive HAART whose PBMCs showed stimulated HIV-1 production” value [11] was 4 out of 6. The “decrease in parent drug peak area” value [12] was 14%, the oral bio-availability [13] was 29% and the “maximum tolerated i.v. dose” value [13] was 0.4 mg/kg. For the same compound, the “maximum tolerated i.v. dose” value ([13]; listed as Prostratin) was “Dosages in Male Rats (MTD via iv bolus dose: 0.4 mg/kg)”, the “lowest dose to get a reliable increase in reverse transcriptase activity” value [14] was 50 ng/mL and the “stimulation time at which sizeable reverse transcriptase activity is detected” value [14] was 24 h. The “short incubation (pulsed stimulation) time leading to detectable reverse transcriptase activity” value ([14]; none after 1 h and 4 h) was 6 h.

Reference: patent US20110224297A1, “Methods of administering prostratin and structural analogs thereof” (priority 2008, published 2011)
